Where “and” joins values, the source holds several entries; their conditions need not be identical. Equal entries are not always repeated. Inconclusive results and toxic doses are left out. The calls were made as follows: active = survival T/C of 150% or more; inactive = T/C below 125% in these data.
System: BDF1 mice, P388 leukemia ip, median survival T/C
Test: NCI In Vivo Anticancer Drug Screen. Data for tumor model P388 Leukemia (intraperitoneal) in B6D2F1 (BDF1) mice
Details: endpoint: median survival time, higher = longer survival
Method in brief: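 Survival ratio, drug arm over vehicle arm, in mice with a transplanted tumour.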

[1] = dose: 50.0 mg/kg/injection, schedule: Q01DX009 (ip), vehicle: saline with Tween-80
[2] = dose: 100.0 mg/kg/injection, schedule: Q01DX009 (ip), vehicle: saline with Tween-80
[3] = dose: 200.0 mg/kg/injection, schedule: Q01DX009 (ip), vehicle: saline with Tween-80
[4] = dose: 50.0 mg/kg/injection, schedule: Q01DX009 (ip), vehicle: Klucel (hydroxypropylcellulose) (HPC)
[5] = dose: 100.0 mg/kg/injection, schedule: Q01DX009 (ip), vehicle: Klucel (hydroxypropylcellulose) (HPC)
[6] = dose: 12.5 mg/kg/injection, schedule: Q01DX009 (ip), vehicle: water
[7] = dose: 25.0 mg/kg/injection, schedule: Q01DX009 (ip), vehicle: water
[8] = dose: 50.0 mg/kg/injection, schedule: Q01DX009 (ip), vehicle: water
[9] = dose: 100.0 mg/kg/injection, schedule: Q01DX009 (ip), vehicle: water
[10] = dose: 100.0 mg/kg/injection, schedule: Q04DX003 (ip), vehicle: Klucel (hydroxypropylcellulose) (HPC)
[11] = dose: 200.0 mg/kg/injection, schedule: Q04DX003 (ip), vehicle: Klucel (hydroxypropylcellulose) (HPC)
[12] = dose: 12.5 mg/kg/injection, schedule: Q01DX009 (ip), vehicle: Klucel (hydroxypropylcellulose) (HPC)
[13] = dose: 25.0 mg/kg/injection, schedule: Q01DX009 (ip), vehicle: Klucel (hydroxypropylcellulose) (HPC)
[14] = dose: 400.0 mg/kg/injection, schedule: Q04DX003 (ip), vehicle: Klucel (hydroxypropylcellulose) (HPC)
[15] = dose: 12.5 mg/kg/injection, schedule: Q01DX009 (ip), vehicle: saline
[16] = dose: 25.0 mg/kg/injection, schedule: Q01DX009 (ip), vehicle: saline
[17] = dose: 100.0 mg/kg/injection, schedule: Q04DX003 (ip), vehicle: saline with Tween-80
[18] = dose: 50.0 mg/kg/injection, schedule: Q04DX003 (ip), vehicle: water
[19] = dose: 100.0 mg/kg/injection, schedule: Q04DX003 (ip), vehicle: water

Measured: T/C

CS(=O)(=O)CC(O)(c1ccccc1)c1ccncc1 (stereo not drawn)
inactive: [1] 96 % of control | [2] 90 % of control | [3] 98 % of control

N#CCc1nc2ccccc2[nH]1
inactive: [4] 104 % of control | [5] 109 % of control | dose: 200.0 mg/kg/injection, schedule: Q01DX009 (ip), vehicle: Klucel (hydroxypropylcellulose) (HPC) 95 % of control

c1ccc(Cn2ccnc2)cc1
inactive: dose: 3.12 mg/kg/injection, schedule: Q01DX009 (ip), vehicle: water 87 % of control | dose: 6.25 mg/kg/injection, schedule: Q01DX009 (ip), vehicle: water 92 % of control | [6] 87 % of control | [7] 99 % of control | [8] 100 % of control | [9] 86 % of control

ClC(c1ccccc1)C1(Br)C=c2ccccc2=C1 (stereo not drawn)
inactive: [4] 95 % of control | dose: 50.0 mg/kg/injection, schedule: Q04DX003 (ip), vehicle: Klucel (hydroxypropylcellulose) (HPC) 95 % of control | [5] 90 % of control | [10] 91 % of control | [11] 100 % of control

Cc1ccc([N+](=O)[O-])cc1N=C=O
inactive: [12] 96 % of control | [13] 100 % of control | [4] 96 % of control | [10] 91 % of control | [14] 91 % of control

COc1cccc2c1C(=O)c1c(O)c3c(c(O)c1C2=O)CC(O)(/C(C)=N/NC(=O)CCC(=O)N/N=C(\C)C1(O)Cc2c(O)c4c(c(O)c2C(OC2CC(N)C(O)C(C)O2)C1)C(=O)c1c(OC)cccc1C4=O)CC3OC1CC(N)C(O)C(C)O1 (stereo not drawn)
active: dose: 14.4 mg/kg/injection, schedule: Q04DX003 (ip), vehicle: water 158 % of control
inactive: dose: 40.0 mg/kg/injection, schedule: Q04DX003 (ip), vehicle: water 109 % of control

c1ccc([B-]2([C+]3CCCCC3)N3CCCCC3C3CCCCN32)cc1 (stereo not drawn)
inactive: [12] 119 % of control | [13] 119 % of control

O=C1C=C(Cl)C(=O)C(Cl)=C1
inactive: dose: 3.0 mg/kg/injection, schedule: Q01DX009 (ip), vehicle: Klucel (hydroxypropylcellulose) (HPC) 100 % of control | dose: 6.0 mg/kg/injection, schedule: Q01DX009 (ip), vehicle: Klucel (hydroxypropylcellulose) (HPC) 87 % of control | dose: 6.25 mg/kg/injection, schedule: Q04DX003 (ip), vehicle: Klucel (hydroxypropylcellulose) (HPC) 95 % of control | dose: 12.5 mg/kg/injection, schedule: Q04DX003 (ip), vehicle: Klucel (hydroxypropylcellulose) (HPC) 100 % of control

NCCNCC[OH2+].NCCNCC[OH2+].[Cu+2].[O-][Cl+3]([O-])([O-])[O-]
inactive: [15] 100 % of control | [16] 105 % of control

CCCCCCCCCCCCCCCC(=O)OCCCCCCCCCC
inactive: dose: 25.0 mg/kg/injection, schedule: Q04DX003 (ip), vehicle: saline with Tween-80 100 % of control | dose: 50.0 mg/kg/injection, schedule: Q04DX003 (ip), vehicle: saline with Tween-80 100 % of control | [17] 100 % of control

O=C(CSc1nc2ccccc2s1)c1sc2sc3ccccc3[n+]2c1[O-]
inactive: dose: 50.0 mg/kg/injection, schedule: Q01DX005 (ip), vehicle: saline with Tween-80 97 % of control | dose: 100.0 mg/kg/injection, schedule: Q01DX005 (ip), vehicle: saline with Tween-80 97 % of control | dose: 200.0 mg/kg/injection, schedule: Q01DX005 (ip), vehicle: saline with Tween-80 87 % of control

C=CC[N+](C)(CC=C)CC[N+](C)(CC=C)CC=C
inactive: [8] 95 % of control | [18] 109 % of control | [9] 104 % of control | [19] 104 % of control | dose: 150.0 mg/kg/injection, schedule: Q01DX009 (ip), vehicle: water 95 % of control

CC(C)=CCCC(C)=C(C(=O)O)C(=O)O
inactive: [10] 113 % of control | [11] 111 % of control | [14] 110 % of control

Cc1cc[n+]2cc3c(ccc4ccccc43)c(C)c2c1
inactive: dose: 0.7 mg/kg/injection, schedule: Q01DX010 (ip), vehicle: carboxymethylcellulose (CMC) 110 % of control | dose: 1.5 mg/kg/injection, schedule: Q01DX010 (ip), vehicle: carboxymethylcellulose (CMC) 100 % of control | dose: 3.0 mg/kg/injection, schedule: Q01DX010 (ip), vehicle: carboxymethylcellulose (CMC) 110 % of control | dose: 6.0 mg/kg/injection, schedule: Q01DX010 (ip), vehicle: carboxymethylcellulose (CMC) 115 % of control | dose: 12.5 mg/kg/injection, schedule: Q01DX010 (ip), vehicle: carboxymethylcellulose (CMC) 110 % of control | dose: 25.0 mg/kg/injection, schedule: Q01DX010 (ip), vehicle: carboxymethylcellulose (CMC) 110 % of control

c1ccc(C([CH2][Hg][CH2]C(c2ccccc2)c2ccccc2)c2ccccc2)cc1
inactive: dose: 100.0 mg/kg/injection, schedule: Q01DX009 (ip), vehicle: other 100 % of control | [10] 100 % of control | dose: 200.0 mg/kg/injection, schedule: Q01DX009 (ip), vehicle: other 104 % of control | [11] 116 % of control | dose: 400.0 mg/kg/injection, schedule: Q01DX009 (ip), vehicle: other 114 % of control | [14] 100 % of control

Cc1cccc(C(=O)/C=C/c2ccc(OCc3ccccc3)cc2)c1
inactive: [1] 91 % of control | [2] 91 % of control | [3] 89 % of control

CC1NCCNCCNCCNC(C)c2cccc1n2 (stereo not drawn)
inactive: dose: 6.25 mg/kg/injection, schedule: Q01DX009 (ip), vehicle: saline 118 % of control | [15] 106 % of control | [16] 118 % of control

CC(=O)OCC(=O)[C@@]1(O)CC[C@H]2[C@@H]3CCC4=CC(=O)C=C[C@]4(C)[C@H]3C(=O)C[C@@]21C
inactive: dose: 25.0 mg/kg/injection, schedule: Q01DX009 (ip), vehicle: saline with Tween-80 109 % of control | [1] 122 % of control | dose: 63.75 mg/kg/injection, schedule: Q01DX009 (ip), vehicle: Klucel (hydroxypropylcellulose) (HPC) 113 % of control | [2] 118 % of control | [10] 100 % of control | dose: 127.5 mg/kg/injection, schedule: Q01DX009 (ip), vehicle: Klucel (hydroxypropylcellulose) (HPC) 122 % of control | [11] 104 % of control | dose: 255.0 mg/kg/injection, schedule: Q01DX009 (ip), vehicle: Klucel (hydroxypropylcellulose) (HPC) 100 % of control | [14] 104 % of control

Cc1c(O)ccc(=O)n1O
inactive: dose: 20.0 mg/kg/injection, schedule: Q01DX009 (ip), vehicle: Klucel (hydroxypropylcellulose) (HPC) 108 % of control | dose: 20.0 mg/kg/injection, schedule: Q01DX009 (ip), vehicle: saline 95 % of control | dose: 40.0 mg/kg/injection, schedule: Q01DX009 (ip), vehicle: Klucel (hydroxypropylcellulose) (HPC) 121 % of control | dose: 40.0 mg/kg/injection, schedule: Q01DX009 (ip), vehicle: saline with Tween-80 117 % of control | dose: 40.0 mg/kg/injection, schedule: Q01DX009 (ip), vehicle: saline 95 % of control | dose: 80.0 mg/kg/injection, schedule: Q01DX009 (ip), vehicle: Klucel (hydroxypropylcellulose) (HPC) 110 % of control | [2] 116 % of control | [17] 104 % of control | dose: 160.0 mg/kg/injection, schedule: Q01DX009 (ip), vehicle: saline with Tween-80 122 % of control | dose: 160.0 mg/kg/injection, schedule: Q01DX009 (ip), vehicle: saline 100 % of control | [3] 108 % of control | dose: 200.0 mg/kg/injection, schedule: Q04DX003 (ip), vehicle: saline with Tween-80 100 % of control | dose: 400.0 mg/kg/injection, schedule: Q04DX003 (ip), vehicle: saline with Tween-80 90 % of control

C=CCN(CC=C)CCSC(=S)NCCOC
inactive: [1] 95 % of control | [2] 100 % of control | [3] 95 % of control

O=c1[nH]c(=O)c2nccnc2[nH]1
266 % of control and 120 % of control: dose: 12.5 mg/kg/injection, schedule: Q04DX003 (ip), vehicle: water
270 % of control and 113 % of control: dose: 25.0 mg/kg/injection, schedule: Q04DX003 (ip), vehicle: water
266 % of control and 111 % of control: [18]
inactive: [6] 86 % of control | [7] 111 % of control | [8] 92 % of control | [9] 104 % of control | dose: 200.0 mg/kg/injection, schedule: Q04DX003 (ip), vehicle: water 95 % of control
268 % of control and 102 % of control: [19]
